One data set concerns the target KDR (VEGFR2) (Homo sapiens (Human), UniProt P35968). As to the kind of experiment: Kinase inhibition, Mobility Shift Assay (VEGFR2). In kind it is biochemical. How it is done:
(§1) This assay directly monitored the ability of compounds to inhibit kinase phosphorylation by measuring non-phosphorylated and phosphorylated substrates in kinase reactions by using Mobility Shift Assays/IMAP™ analysis.
(§2) Add the kinase and DTT to 1× kinase buffer to form a 2.5× kinase solution; transfer 10 μL of 2.5× kinase solution to a 384-well reaction plate and add 1× kinase buffer to negative control wells. Incubate the plate for 10 min at room temperature; add FAM-labeled peptides, MgCl2, ATP and other reagents to 1× kinase buffer to form a 2.5× substrate solution; transfer 10 μL of the above 2.5× substrate solution to the 384-well reaction plate; incubate the plate at 28° C. for different times, and add 25 μL of stop solution to the 384-well reaction plate to stop the reaction. Read the conversion ratio data on CaliperEZ Reader II. Convert conversion rates into inhibition ratio data.
(§3) “Min” indicates the readout of the control well without the addition of kinase; and “Max” indicates the readout of the control well with the addition of DMSO. Fit IC50 values with XLFit excel add-in version 5.4.0.8.
(§4) X indicates the log value of compound concentration, and Y indicates the inhibition ratio (% inhibition).

A further data set addresses FLT1 (VEGFR1) (Homo sapiens (Human), UniProt P17948). The data set is described as follows: Kinase inhibition, Mobility Shift Assay (VEGFR1). In kind it is biochemical. How it is done:
as §1, §2, §3, §4

Another data set addresses FLT4 (VEGFR3) (Homo sapiens (Human), UniProt P35916). As to the kind of experiment: Kinase inhibition, Mobility Shift Assay (VEGFR3). In kind it is biochemical. The procedure:
as §1, §2, §3, §4

The subject of a further data set is melanin. The data set is described as follows: Binding capacity of compounds to melanin. In kind it is in vitro ADME. The conditions noted are these: Sepia officinalis (cuttlefish), melanin suspension (1 mg/mL); 1 mg/mL melanin suspension in PBS pH 7.4, 2 μM compound, 2 h at 37° C.; read-out: Fu % (percentage of free drug, not bound to melanin). The source says:
Pigmented eye tissues contain melanin in intracellular melanosomes. Drugs bind to melanin to varying degrees, ranging from non-binding to extensive binding. Therefore, melanin binding is an important feature that affects drug delivery and biodistribution in the eye. The binding capacity of a compound to the melanin must be considered in the development of ophthalmic drugs.
Melanin was derived from the melanin of cuttlefish (Sepia officinalis) and was commercially available from Sigma Aldrich (St Louis, MO).
First, prepare 1 mg/mL melanin suspension with PBS (pH 7.4). As a washing step for the matrix, centrifuge the suspended particles for 5 min at 3000 rpm. Resuspend the resulting particles in a fresh PBS buffer, heat to 37° C. over continuous shaking and incubate it for 1 h. Accurately pipette 2 μL of the test stock solution (0.1 mM) into 98 μL of melanin suspension (1 mg/mL) to achieve a final incubation concentration of 2 μM. Similarly, accurately pipette 2 μL of the stock solution (0.1 mM) to 98 μL of PBS buffer (containing 0.1% BSA) as a blank control sample. Incubate the samples in a shaker (80-90 rpm) for 2 h at 37° C. Then, centrifuge the samples at room temperature. Pipette 50 μL of the supernatant and add 50 μL of precipitant (containing an internal standard). After protein precipitation of all the above samples, centrifuge the samples to collect the supernatants, dilute the supernatants with water (if necessary) and inject them for analysis. At the same time, measure the positive controls, including the high-binding compounds Sunitinib and chloroquine and the low-binding compound celecoxib. Establish an LC-MS/MS method for determining compound concentrations, and calibrate the peak area ratio of analyte/internal standard (Analyte/AIS) in the measured sample by the dilution factor to take it as an alternative concentration for the sample for data processing. The binding rate (Fh) of a compound in melanin was calculated as: […]
Ctest was the concentration of the compound in the melanin-incubated sample or the peak area ratio of the test compound to the internal standard. Ccontrol was the concentration of the compound in the blank control sample or the peak area ratio of the test compound to the internal standard. Percentage of free drug (Fu %)=100−Fb The binding rates of the compounds of the present invention to melanin are shown in the table below: […]

The target of another data set is EGFR (Homo sapiens (Human), UniProt P00533). As to the kind of experiment: Kinase inhibition, Mobility Shift Assay (EGFR). In kind it is biochemical. How it is done:
as §1, §2, §3, §4

Sequence of KDR (VEGFR2) (P35968 790-1356): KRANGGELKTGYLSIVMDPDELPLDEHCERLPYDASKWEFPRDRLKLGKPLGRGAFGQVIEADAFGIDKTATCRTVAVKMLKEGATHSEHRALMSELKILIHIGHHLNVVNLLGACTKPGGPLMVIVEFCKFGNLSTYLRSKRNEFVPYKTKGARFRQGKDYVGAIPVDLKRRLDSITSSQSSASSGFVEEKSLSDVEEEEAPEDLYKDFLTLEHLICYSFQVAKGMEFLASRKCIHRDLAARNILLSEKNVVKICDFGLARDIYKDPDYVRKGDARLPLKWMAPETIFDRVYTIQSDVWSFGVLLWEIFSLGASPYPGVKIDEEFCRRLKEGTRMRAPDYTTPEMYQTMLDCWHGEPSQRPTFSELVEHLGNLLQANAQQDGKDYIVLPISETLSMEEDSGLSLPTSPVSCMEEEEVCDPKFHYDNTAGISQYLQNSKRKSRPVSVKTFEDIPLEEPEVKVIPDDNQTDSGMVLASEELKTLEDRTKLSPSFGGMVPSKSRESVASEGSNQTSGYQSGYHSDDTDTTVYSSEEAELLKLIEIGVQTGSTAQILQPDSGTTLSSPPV
Sequence of FLT4 (VEGFR3) (P35916 25-1363): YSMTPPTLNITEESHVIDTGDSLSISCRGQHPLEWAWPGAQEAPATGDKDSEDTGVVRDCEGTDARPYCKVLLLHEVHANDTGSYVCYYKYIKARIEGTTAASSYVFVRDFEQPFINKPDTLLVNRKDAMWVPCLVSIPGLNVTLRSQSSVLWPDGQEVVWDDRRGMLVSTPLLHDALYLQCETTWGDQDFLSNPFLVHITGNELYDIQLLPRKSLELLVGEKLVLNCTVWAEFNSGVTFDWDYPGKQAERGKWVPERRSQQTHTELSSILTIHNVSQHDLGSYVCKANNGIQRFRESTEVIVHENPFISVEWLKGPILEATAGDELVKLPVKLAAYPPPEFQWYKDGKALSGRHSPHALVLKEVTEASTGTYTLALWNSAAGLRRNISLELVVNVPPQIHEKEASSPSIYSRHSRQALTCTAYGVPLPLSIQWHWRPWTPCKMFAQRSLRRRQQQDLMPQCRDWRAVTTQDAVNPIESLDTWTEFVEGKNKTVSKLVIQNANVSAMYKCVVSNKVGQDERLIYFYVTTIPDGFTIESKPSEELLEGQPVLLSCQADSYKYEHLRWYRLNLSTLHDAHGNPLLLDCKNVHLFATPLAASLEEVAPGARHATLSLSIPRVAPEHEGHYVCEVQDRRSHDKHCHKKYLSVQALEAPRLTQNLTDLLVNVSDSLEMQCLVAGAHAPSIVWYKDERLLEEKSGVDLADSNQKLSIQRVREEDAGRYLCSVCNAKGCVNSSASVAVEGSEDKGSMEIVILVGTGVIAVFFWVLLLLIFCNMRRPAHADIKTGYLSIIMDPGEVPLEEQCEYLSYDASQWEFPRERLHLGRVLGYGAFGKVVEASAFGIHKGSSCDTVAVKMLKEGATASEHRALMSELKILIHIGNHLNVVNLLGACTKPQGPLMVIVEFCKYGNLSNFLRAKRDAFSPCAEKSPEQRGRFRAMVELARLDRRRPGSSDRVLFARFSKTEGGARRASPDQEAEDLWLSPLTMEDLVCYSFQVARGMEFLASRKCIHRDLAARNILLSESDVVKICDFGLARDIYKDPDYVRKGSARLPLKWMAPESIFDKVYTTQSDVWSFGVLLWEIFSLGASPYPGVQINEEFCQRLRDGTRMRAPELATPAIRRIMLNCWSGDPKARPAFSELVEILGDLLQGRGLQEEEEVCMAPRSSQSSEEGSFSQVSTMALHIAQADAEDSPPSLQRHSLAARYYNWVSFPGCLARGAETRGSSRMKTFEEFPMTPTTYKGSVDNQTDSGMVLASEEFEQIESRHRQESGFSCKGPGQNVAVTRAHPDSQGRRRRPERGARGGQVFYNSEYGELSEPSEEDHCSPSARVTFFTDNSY
Sequence of FLT1 (VEGFR1) (P17948 27-1338): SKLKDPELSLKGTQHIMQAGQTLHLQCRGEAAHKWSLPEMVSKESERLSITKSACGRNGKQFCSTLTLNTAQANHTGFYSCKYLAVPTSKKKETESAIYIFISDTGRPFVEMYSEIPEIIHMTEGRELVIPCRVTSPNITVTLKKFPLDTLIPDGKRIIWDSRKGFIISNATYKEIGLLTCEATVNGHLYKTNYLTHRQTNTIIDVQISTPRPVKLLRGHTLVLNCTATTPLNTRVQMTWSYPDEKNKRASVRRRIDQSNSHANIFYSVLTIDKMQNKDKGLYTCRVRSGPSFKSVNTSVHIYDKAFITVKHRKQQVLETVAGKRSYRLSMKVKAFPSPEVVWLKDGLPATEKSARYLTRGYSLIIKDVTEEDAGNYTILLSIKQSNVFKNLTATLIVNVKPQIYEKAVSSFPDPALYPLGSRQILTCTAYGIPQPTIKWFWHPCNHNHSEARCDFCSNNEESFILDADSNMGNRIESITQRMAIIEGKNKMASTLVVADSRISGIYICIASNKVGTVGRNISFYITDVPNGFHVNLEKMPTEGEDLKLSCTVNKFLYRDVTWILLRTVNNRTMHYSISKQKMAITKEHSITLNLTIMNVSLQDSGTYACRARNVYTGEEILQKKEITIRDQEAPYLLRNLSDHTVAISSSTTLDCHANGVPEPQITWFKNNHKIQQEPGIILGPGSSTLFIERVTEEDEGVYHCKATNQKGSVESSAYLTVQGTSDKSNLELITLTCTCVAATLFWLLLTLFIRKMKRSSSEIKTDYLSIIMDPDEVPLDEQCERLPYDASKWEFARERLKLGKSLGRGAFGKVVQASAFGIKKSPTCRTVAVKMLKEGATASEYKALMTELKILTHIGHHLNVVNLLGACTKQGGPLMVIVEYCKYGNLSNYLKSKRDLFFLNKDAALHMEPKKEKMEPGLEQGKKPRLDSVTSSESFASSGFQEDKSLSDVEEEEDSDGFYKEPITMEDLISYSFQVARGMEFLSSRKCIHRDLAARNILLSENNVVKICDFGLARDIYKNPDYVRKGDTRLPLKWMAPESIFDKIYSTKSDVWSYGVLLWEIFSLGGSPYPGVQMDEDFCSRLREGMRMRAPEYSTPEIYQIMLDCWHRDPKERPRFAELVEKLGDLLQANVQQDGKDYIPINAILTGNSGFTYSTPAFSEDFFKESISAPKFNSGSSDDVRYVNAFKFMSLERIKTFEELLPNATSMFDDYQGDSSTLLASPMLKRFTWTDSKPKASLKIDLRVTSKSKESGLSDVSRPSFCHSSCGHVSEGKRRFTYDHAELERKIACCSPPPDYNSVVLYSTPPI
Sequence of EGFR (P00533 25-1210): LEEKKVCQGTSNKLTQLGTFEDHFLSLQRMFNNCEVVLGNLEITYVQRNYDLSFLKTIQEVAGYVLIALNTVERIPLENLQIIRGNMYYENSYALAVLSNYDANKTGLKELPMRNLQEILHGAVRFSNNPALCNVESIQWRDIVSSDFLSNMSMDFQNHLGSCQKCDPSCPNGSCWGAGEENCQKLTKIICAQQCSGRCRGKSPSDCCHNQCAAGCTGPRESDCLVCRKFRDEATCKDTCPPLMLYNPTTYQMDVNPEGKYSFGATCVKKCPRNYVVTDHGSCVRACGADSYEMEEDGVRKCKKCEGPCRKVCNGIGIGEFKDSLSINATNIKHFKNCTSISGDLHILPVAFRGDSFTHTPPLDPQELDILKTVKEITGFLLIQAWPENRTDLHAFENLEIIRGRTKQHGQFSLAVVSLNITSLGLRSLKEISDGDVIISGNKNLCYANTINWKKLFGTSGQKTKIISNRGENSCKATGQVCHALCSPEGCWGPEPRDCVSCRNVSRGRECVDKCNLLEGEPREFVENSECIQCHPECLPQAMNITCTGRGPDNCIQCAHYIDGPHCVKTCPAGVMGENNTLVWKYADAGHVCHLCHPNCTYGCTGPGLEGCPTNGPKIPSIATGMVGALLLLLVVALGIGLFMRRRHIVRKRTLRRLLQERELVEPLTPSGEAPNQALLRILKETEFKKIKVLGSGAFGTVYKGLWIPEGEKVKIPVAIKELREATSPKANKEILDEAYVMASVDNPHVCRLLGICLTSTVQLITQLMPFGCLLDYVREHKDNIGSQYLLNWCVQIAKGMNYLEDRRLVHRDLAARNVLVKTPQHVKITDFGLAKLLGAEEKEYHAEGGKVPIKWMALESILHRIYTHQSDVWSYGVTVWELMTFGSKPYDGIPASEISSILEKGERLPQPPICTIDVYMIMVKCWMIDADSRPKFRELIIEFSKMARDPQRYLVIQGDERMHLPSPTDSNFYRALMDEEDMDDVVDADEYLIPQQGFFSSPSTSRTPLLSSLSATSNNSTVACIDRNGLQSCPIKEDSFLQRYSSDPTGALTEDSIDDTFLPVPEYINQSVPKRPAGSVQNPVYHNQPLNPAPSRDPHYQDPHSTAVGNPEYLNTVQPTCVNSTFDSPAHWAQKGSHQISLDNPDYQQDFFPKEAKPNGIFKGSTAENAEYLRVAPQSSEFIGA

For the compound `CNC(=O)c1ccccc1Sc1ccc2c(/C=C/c3ccc(OCC4CCN(C)C4)cn3)n[nH]c2c1` (stereo not shown) [Compound I-1, N-methyl-2-({3-[(E)-2-{5-[(1-methylpyrrolidin-3-yl)methoxy]pyridin-2-yl}vinyl]-1H-indazol-6-yl}thio)benzamide], the half-inhibitory concentration (IC50) on KDR (VEGFR2), on FLT1 (VEGFR1) and at FLT4 (VEGFR3) was no more than 1 nM each time. Moreover, in the data set on melanin, the fraction unbound at 2 h, 2 μM is greater than 0.05.
`CNC(=O)c1ccccc1Sc1ccc2c(/C=C/c3ccc(OCC4CCCN4C)cn3)n[nH]c2c1` (stereo not shown) [Compound I-2, N-methyl-2-({3-[(E)-2-{5-[(1-methylpyrrolidin-2-yl)methoxy]pyridin-2-yl}vinyl]-1H-indazol-6-yl}thio)benzamide]: the IC50 at KDR (VEGFR2) and at FLT1 (VEGFR1) was no more than 1 nM each time. For the same compound, the fraction unbound at 2 h, 2 μM with melanin lay within 0.01 to 0.05.
As to `CNC(=O)c1ccccc1Sc1ccc2c(/C=C/c3ccc(OCC4CCNC4)cn3)n[nH]c2c1` (stereo not shown) [Compound I-7], the 50% inhibitory concentration (IC50) at FLT1 (VEGFR1) is no more than 1 nM. Besides, the fraction unbound at 2 h, 2 μM with melanin is greater than 0.05.
In the case of `CNC(=O)c1ccccc1Sc1ccc2c(/C=C/c3ccc(O)cn3)n[nH]c2c1` [Compound I-10, 2-({3-[(E)-2-(5-hydroxypyridin-2-yl)vinyl]-1H-indazol-6-yl}thio)-N-methylbenzamide], the IC50 on KDR (VEGFR2) was 1 to 10 nM; on EGFR it was 6000 to 60000 nM; on FLT1 (VEGFR1), 1 to 10 nM; at FLT4 (VEGFR3) it was no more than 1 nM.
`CNC(=O)c1ccccc1Sc1ccc2c(C#Cc3cccc(OCCN4CCCC4)n3)n[nH]c2c1` [Compound I-24, N-methyl-2-{[3-(2-{6-[2-(pyrrolidin-1-yl)ethoxy]pyridin-2-yl}ethynyl)-1H-indazol-6-yl]thio}benzamide]: the IC50 lay in the range of 10 to 100 nM at KDR (VEGFR2), 6000 to 60000 nM on EGFR, 10 to 100 nM on FLT1 (VEGFR1) and 10 to 100 nM at FLT4 (VEGFR3).
As for `CNC(=O)c1ccccc1Sc1ccn2c(/C=C/c3ccccn3)ncc2c1` [Compound I-27, N-methyl-2-({3-[(E)-2-(pyridin-2-yl)vinyl]imidazo[1,5-a]pyridin-7-yl}thio)benzamide], the IC50 on KDR (VEGFR2) is greater than 100 nM; at EGFR it was 6000 to 60000 nM; on FLT1 (VEGFR1), greater than 100 nM; on FLT4 (VEGFR3), greater than 100 nM.
For `CNC(=O)c1ccccc1Sc1ccc2c(Nc3ccc(OCCN4CCCC4)cn3)n[nH]c2c1` [Compound I-30, N-methyl-2-{[3-({5-[2-(pyrrolidin-1-yl)ethoxy]pyridin-2-yl}amino)-1H-indazol-6-yl]thio}benzamide], the IC50 at KDR (VEGFR2) is greater than 100 nM; at EGFR it was 6000 to 60000 nM; at FLT1 (VEGFR1), greater than 100 nM; at FLT4 (VEGFR3) it was greater than 100 nM.
Turning to `CNC(=O)c1ccccc1Sc1ccc2c(/C=C/c3ccc(OC[C@H]4CCN(C)C4)cn3)n[nH]c2c1` [Compound I-37, N-methyl-2-({3-[(E)-2-(5-{[(3S)-1-methylpyrrolidin-3-yl]methoxy}pyridin-2-yl)vinyl]-1H-indazol-6-yl}thio)benzamide], the half-inhibitory concentration (IC50) at KDR (VEGFR2) and at FLT1 (VEGFR1) was no more than 1 nM each time. The fraction unbound at 2 h, 2 μM in the data set on melanin fell in the range of 0.01 to 0.05.
With `O=C(NC1CC1)c1ccc(F)cc1Sc1ccc2c(/C=C/c3ccc(CN4CCCC4)cn3)n[nH]c2c1` [Compound I-79, N-cyclopropyl-4-fluoro-2-({3-[(E)-2-{5-[(pyrrolidin-1-yl)methyl]pyridin-2-yl}vinyl]-1H-indazol-6-yl}thio)benzamide], the IC50 at KDR (VEGFR2) is no more than 1 nM; at EGFR, 6000 to 60000 nM. The fraction unbound at 2 h, 2 μM in the data set with melanin was greater than 0.05.
As to `O=C(NC1CC1)c1ccccc1Nc1ccc2c(/C=C/c3ccc(CN4CCCC4)cn3)n[nH]c2c1` [Compound I-82, N-cyclopropyl-2-({3-[(E)-2-{5-[(pyrrolidin-1-yl)methyl]pyridin-2-yl}vinyl]-1H-indazol-6-yl}amino)benzamide], the IC50 was no more than 1 nM at KDR (VEGFR2) and 6000 to 60000 nM at EGFR. Besides, the fraction unbound at 2 h, 2 μM with melanin lay in the range of 0.01 to 0.05.
Take `CCN(CC)Cc1ccc(/C=C/c2n[nH]c3cc(Sc4c(F)cccc4C(=O)NC)ccc23)nc1` [Compound I-91, 2-({3-[(E)-2-{5-[(diethylamino)methyl]pyridin-2-yl}vinyl]-1H-indazol-6-yl}thio)-3-fluoro-N-methylbenzamide]: the IC50 on KDR (VEGFR2) fell in the range of 1 to 10 nM; on EGFR it was 6000 to 60000 nM. Besides, the fraction unbound at 2 h, 2 μM in the data set on melanin lay within 0.01 to 0.05.
With `CCN(CC)Cc1ccc(/C=C/c2n[nH]c3cc(Sc4ccc(F)cc4C(=O)NC)ccc23)nc1` [Compound I-93, 2-({3-[(E)-2-{5-[(diethylamino)methyl]pyridin-2-yl}vinyl]-1H-indazol-6-yl}thio)-5-fluoro-N-methylbenzamide], the figures for the IC50 at KDR (VEGFR2) and on EGFR were 1 to 10 nM and 6000 to 60000 nM, respectively. Besides, in the data set on melanin, the fraction unbound at 2 h, 2 μM fell in the range of 0.01 to 0.05.
In the case of `CNC(=O)c1ccc(F)cc1Sc1ccc2c(/C=C/c3ccc(CN4CCCC4)cn3)n[nH]c2c1` [Compound I-94, 4-fluoro-N-methyl-2-({3-[(E)-2-{5-[(pyrrolidin-1-yl)methyl]pyridin-2-yl}vinyl]-1H-indazol-6-yl}thio)benzamide], the IC50 on KDR (VEGFR2) fell in the range of 1 to 10 nM; at EGFR, 6000 to 60000 nM. The fraction unbound at 2 h, 2 μM with melanin lay in the range of 0.01 to 0.05.
Turning to `CCN(CC)Cc1ccc(/C=C/c2n[nH]c3cc(Sc4ccccc4C(=O)NCCF)ccc23)nc1` [Compound I-98, 2-({3-[(E)-2-{5-(diethylamino)methyl]pyridin-2-ylvinyl]-1H-indazol-6-yl}thio)-N-(2-fluoroethyl)benzamide], the IC50 at KDR (VEGFR2) lay within 1 to 10 nM; on EGFR it was 6000 to 60000 nM. For the same compound, the fraction unbound at 2 h, 2 μM in the data set with melanin is greater than 0.05.
As to `CCN(CC)Cc1ccc(/C=C/c2n[nH]c3cc(Sc4ccccc4C(=O)NCC(F)F)ccc23)nc1` [Compound I-99, 2-({3-[(E)-2-{5-[(diethylamino)methyl]pyridin-2-yl}vinyl]-1H-indazol-6-yl}thio)-N-(2,2-difluoroethyl)benzamide], the IC50 at KDR (VEGFR2) lay in the range of 1 to 10 nM; on EGFR, 6000 to 60000 nM. The fraction unbound at 2 h, 2 μM with melanin is greater than 0.05.
As for `O=C(NC1CC1)c1cc(F)ccc1Sc1ccc2c(/C=C/c3cc(CCCN4CCCC4)ccn3)n[nH]c2c1` [Compound I-119, N-cyclopropyl-5-fluoro-2-({3-[(E)-2-{4-[3-(pyrrolidin-1-yl)propyl]pyridin-2-yl}vinyl]-1H-indazol-6-yl}thio)benzamide], the IC50 on KDR (VEGFR2) was no more than 1 nM; on EGFR it was greater than 60000 nM; on FLT1 (VEGFR1), 1 to 10 nM; at FLT4 (VEGFR3), 10 to 100 nM.
For `O=C(NC1CC1)c1ccccc1Sc1ccc2c(/C=C/c3cc(CCCN4CCCC4)ccn3)n[nH]c2c1` [Compound I-120, N-cyclopropyl-2-({3-[(E)-2-{4-[3-(pyrrolidin-1-yl)propyl]pyridin-2-yl}vinyl]-1H-indazol-6-yl}thio)benzamide], in that order: no more than 1 nM, greater than 60000 nM, 1 to 10 nM and 1 to 10 nM.
Take `O=C(NC1CC1)c1ccccc1Sc1ccc2c(/C=C/c3cccc(CCCN4CCCC4)n3)n[nH]c2c1` [Compound I-121, N-cyclopropyl-2-({3-[(E)-2-{6-[3-(pyrrolidin-1-yl)propyl]pyridin-2-yl}vinyl]-1H-indazol-6-yl}thio)benzamide]: the IC50 is no more than 1 nM on KDR (VEGFR2), 6000 to 60000 nM on EGFR, 1 to 10 nM at FLT1 (VEGFR1) and no more than 1 nM on FLT4 (VEGFR3).

What is called IC50 is the concentration needed to halve the response being measured.
